Measurements as given in article PMC11193023 (The Journal of Biological Chemistry, 2024).

Target: T1, BwCuyA (Bilophila wadsworthia, UniProt E5Y343)
T1 sequence (E5Y343 1-333): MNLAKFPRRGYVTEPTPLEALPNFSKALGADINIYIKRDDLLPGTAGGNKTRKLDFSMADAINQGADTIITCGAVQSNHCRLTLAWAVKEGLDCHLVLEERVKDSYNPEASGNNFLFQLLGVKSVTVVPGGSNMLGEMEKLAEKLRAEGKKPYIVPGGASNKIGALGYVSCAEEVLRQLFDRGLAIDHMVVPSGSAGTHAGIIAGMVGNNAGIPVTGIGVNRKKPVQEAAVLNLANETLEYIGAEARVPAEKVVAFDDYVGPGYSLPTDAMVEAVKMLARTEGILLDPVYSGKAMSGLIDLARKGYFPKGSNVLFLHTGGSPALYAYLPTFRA
Test: UV-Vis absorbance spectrum of purified enzyme
Format: binding
Conditions: enzyme as isolated; sub-stoichiometric PLP content

Cc1ncc(COP(=O)(O)O)c(C=O)c1O [PLP]
UV-Vis absorbance spectrum of purified enzyme: UV-Vis absorbance spectrum of BwCuyA exhibited characteristic features of the PLP cofactor
